Reference: patent US9034882B2, “Inhibitors of human immunodeficiency virus replication” (priority 2012, dated 2015)
Read-outs that look alike come from different tables or passages of the source.

System: recombinant NL-Rluc virus
Assay: Inhibition of HIV replication (NL-RLuc luciferase reporter virus in MT-2 cells)
Format: cell-based
[1] = Human immunodeficiency virus 1, MT2, 120 h, read-out: Activity
[2] = Human immunodeficiency virus 1, MT2, 120 h, read-out: EC50 μM

| Compound | EC50 [1] | EC50 [2] | EC50 (read-out: Activity, MT-2 cells infected with NL-RLuc virus, 5 days of incubation, luciferase readout, serum condition not given) |
| --- | --- | --- | --- |
| Cc1nc2cc(-c3ccccc3)nn2c(N2CCC(C)(C)CC2)c1C(OC(C)(C)C)C(=O)O (stereo not shown) [Example 1, 2-(tert-butoxy)-2-(7-(4,4-dimethylpiperidin-1-yl)-5-methyl-2-phenylpyrazolo[1,5a]pyrimidin-6-yl)acetic acid] | 0.1 to 1 µM | 0.55 µM | – |
| Cc1nc2cc(-c3ccccc3)nn2c(N2CCCCC2)c1C(OC(C)(C)C)C(=O)O (stereo not shown) [Example 2, 2-(tert-butoxy)-2-(7-(lpiperidin-1-yl)-5-methyl-2-phenylpyrazolo[1,5a]pyrimidin-6-yl)acetic acid] | > 1 µM | 5 µM | – |
| Cc1nc2cc(-c3ccccc3)nn2c(N2CCc3ccccc3C2)c1C(OC(C)(C)C)C(=O)O (stereo not shown) [Example 3, 2-(tert-butoxy)-2-(7-(3,4-dijydroisoquinolin-2(1H)-yl)-5-methyl-2-phenylpyrazolo[1,5a]pyrimidin-6-yl)acetic acid] | > 1 µM | – | – |
| Cc1nc2cc(-c3ccccc3)nn2c(N2CCCNCC2)c1C(OC(C)(C)C)C(=O)O (stereo not shown) [Example 4, 2(7-(1,4-diazepan-1-yl)-5-methyl-2-phenylpyrazolo[1,5a]pyrimidin-6-yl)-2-(tert-butoxy)-acetic acid] | > 1 µM | – | – |
| Cc1nc2cc(-c3ccccc3)nn2c(N2Cc3ccccc3C2)c1C(OC(C)(C)C)C(=O)O (stereo not shown) [Example 5, 2-(tert-butoxy)-2-(7-(isoindolin-2-yl)-5-methyl-2-phenylpyrazolo[1,5a]pyrimidin-6-yl)acetic acid] | > 1 µM | – | – |
| Cc1nc2cc(-c3ccccc3)nn2c(N2CCCCCC2)c1C(OC(C)(C)C)C(=O)O (stereo not shown) [Example 6, 2(7-(azepan-1-yl)-5-methyl-2-phenylpyrazolo[1,5a]pyrimidin-6-yl)-2-(tert-butoxy)-acetic acid] | > 1 µM | – | – |
| Cc1nc2cc(-c3ccccc3)nn2c(N2CCN(C)CC2)c1C(OC(C)(C)C)C(=O)O (stereo not shown) [Example 7, 2-(tert-butoxy)-2-(5-methyl-7(4-methylpiperazin-1-yl)-2-phenylpyrazolo[1,5a]pyrimidin-6-yl)acetic acid] | > 1 µM | 5.2 µM | – |
| Cc1nc2cc(-c3ccccc3)nn2c(N2CCC(C)CC2)c1C(OC(C)(C)C)C(=O)O (stereo not shown) [Example 8, 2-(tert-butoxy)-2-(5-methyl-7-(4-methylpiperidin-1-yl)-2-phenylpyrazolo[1,5a]pyrimidin-6-yl)acetic acid] | 0.1 to 1 µM | 0.72 µM | – |
| Cc1nc2cc(-c3ccccc3)nn2c(N2C(C)COCC2C)c1C(OC(C)(C)C)C(=O)O (stereo not shown) [Example 9] | > 1 µM | – | – |
| Cc1nc2cc(-c3ccccc3)nn2c(N2CCCC(C)C2)c1C(OC(C)(C)C)C(=O)O (stereo not shown) [Example 10] | > 1 µM | – | – |
| COC1CCN(c2c(C(OC(C)(C)C)C(=O)O)c(C)nc3cc(-c4ccccc4)nn23)CC1 (stereo not shown) [Example 11] | > 1 µM | – | – |
| Cc1nc2cc(-c3ccccc3)nn2c(N2CCC(F)CC2)c1C(OC(C)(C)C)C(=O)O (stereo not shown) [Example 12] | > 1 µM | – | – |
| Cc1nc2cc(-c3ccccc3)nn2c(N2CCC(C(=O)O)CC2)c1C(OC(C)(C)C)C(=O)O (stereo not shown) [Example 13] | > 1 µM | – | – |
| Cc1nc2cc(-c3ccccc3)nn2c(N2CC[C@@H]3CCCC[C@@H]3C2)c1C(OC(C)(C)C)C(=O)O (stereo partly shown) [Example 14] | 0.1 to 1 µM | – | – |
| Cc1nc2cc(-c3ccccc3)nn2c(N2CCC(O)CC2)c1C(OC(C)(C)C)C(=O)O (stereo not shown) [Example 15] | > 1 µM | – | – |
| Cc1nc2cc(-c3ccccc3)nn2c(N2CCC(C(C)C)CC2)c1C(OC(C)(C)C)C(=O)O (stereo not shown) [Example 16] | 0.1 to 1 µM | 0.77 µM | – |
| Cc1nc2cc(-c3ccccc3)nn2c(N2CCC(C(C)(C)C)CC2)c1C(OC(C)(C)C)C(=O)O (stereo not shown) [Example 17] | > 1 µM | – | – |

| Compound | EC50 [1] | EC50 [2] | EC50 (read-out: Activity, MT-2 cells infected with NL-RLuc virus, 5 days of incubation, luciferase readout, serum condition not given) |
| --- | --- | --- | --- |
| Cc1nc2cc(-c3ccccc3)nn2c(N2CCCC(F)C2)c1C(OC(C)(C)C)C(=O)O (stereo not shown) [Example 18] | > 1 µM | – | – |
| Cc1nc2cc(-c3ccccc3)nn2c(N2CCCCC2C)c1C(OC(C)(C)C)C(=O)O (stereo not shown) [Example 19] | 0.1 to 1 µM | – | – |
| Cc1nc2cc(-c3ccccc3)nn2c(N2CCCCC2C)c1C(OC(C)(C)C)C(=O)O (stereo not shown) [Example 20] | – | – | 0.1 to 1 µM |
| Cc1nc2cc(-c3ccccc3)nn2c(N2CCC(F)(F)CC2)c1C(OC(C)(C)C)C(=O)O (stereo not shown) [Example 21] | > 1 µM | – | – |
| Cc1nc2cc(-c3ccccc3)nn2c(N2CCC(Br)CC2)c1C(OC(C)(C)C)C(=O)O (stereo not shown) [Example 22] | > 1 µM | – | – |
| Cc1nc2cc(-c3ccccc3)nn2c(N2CCC(C(F)(F)F)CC2)c1C(OC(C)(C)C)C(=O)O (stereo not shown) [Example 23] | > 1 µM | – | – |
| Cc1nc2cc(-c3ccccc3)nn2c(N2CCC(C(N)=O)CC2)c1C(OC(C)(C)C)C(=O)O (stereo not shown) [Example 24] | > 1 µM | – | – |
| Cc1nc2cc(-c3ccccc3)nn2c(N2CCCC2C(C)C)c1C(OC(C)(C)C)C(=O)O (stereo not shown) [Example 25] | > 1 µM | – | – |
| Cc1nc2cc(-c3ccccc3)nn2c(N2CCC3(CCCC3)C2)c1[C@H](OC(C)(C)C)C(=O)O [Example 26, (S)-2-(tert-butoxy)-2-(5-methyl-2-phenyl-7-(2-azaspiro[4.4]nonan-2-yl)pyrazolo[1,5-a]pyrimidin-6-yl)acetic acid] | 0.1 to 1 µM | 0.3 µM | – |
| Cc1nc2cc(-c3ccccc3)nn2c(N2CCC3(CCCC3)CC2)c1[C@H](OC(C)(C)C)C(=O)O [Example 27, (S)-2-(tert-butoxy)-2-(5-methyl-2-phenyl-7-(8-azaspiro[4.5]decan-8-yl)pyrazolo[1,5-a]pyrimidin-6-yl) acetic acid] | > 1 µM | – | – |
| Cc1nc2cc(-c3ccccc3)nn2c(N2CCC(C)(C)C2)c1[C@H](OC(C)(C)C)C(=O)O [Example 28, (S)-2-(tert-butoxy)-2-(7-(3,3-dimethylpyrrolidin-1-yl)-5-methyl-2-phenylpyrazolo[1,5-a]pyrimidin-6-yl)acetic acid] | 0.1 to 1 µM | – | – |
| CCC1(C)CCN(c2c([C@H](OC(C)(C)C)C(=O)O)c(C)nc3cc(-c4ccccc4)nn23)CC1 [Example 29, (S)-2-(tert-butoxy)-2-(7-(4-ethyl-4-methylpiperidin-1-yl)-5-methyl-2-phenylpyrazolo[1,5-a]pyrimidin-6-yl)acetic acid] | 0.1 to 1 µM | – | – |
| Cc1nc2cc(-c3ccccc3)nn2c(N2CCC3(CC2)CC3)c1[C@H](OC(C)(C)C)C(=O)O [Example 30, (S)-2-(tert-butoxy)-2-(5-methyl-2-phenyl-7-(6-azaspiro[2.5]octan-6-yl)pyrazolo[1,5-a]pyrimidin-6-yl)acetic acid] | 0.1 to 1 µM | – | – |
| Cc1nc2cc(-c3cccc(OCc4ccccc4)c3)nn2c(N2CCC(C)CC2)c1C(OC(C)(C)C)C(=O)O (stereo not shown) [Example 31, 2-(2-(3-(benzyloxy)phenyl)-5-methyl-7-(4-methylpiperidin-1-yl)pyrazolo[1,5-a]pyrimidin-6-yl)20(tert-butoxy)acetic acid] | < 0.1 µM | – | – |
| Cc1nc2cc(-c3cccc(OCc4ccccc4)c3)nn2c(N2CCC(C)(C)CC2)c1C(OC(C)(C)C)C(=O)O (stereo not shown) [Example 32, 2-(2-(3-(benzyloxy)phenyl)-7-(4,4-dimethylpiperidin-1-yl)-5-methylpyrazolo[1,5-a]pyrimidin-6-yl)2-(tert-butoxy)acetic acid] | < 0.1 µM | 0.06 µM | – |
| Cc1nc2cc(-c3ccc4c(c3)CCCC4)nn2c(N2CCC(C)(C)CC2)c1[C@H](OC(C)(C)C)C(=O)O [Example 33, (S)-2-(tert-Butoxy)-2-(7-(4,4-dimethylpiperidin-1-yl)-5-methyl-2-(5,6,7,8-tetrahydronaphthalen-2-yl)pyrazolo[1,5-a]pyrimidin-6-yl)acetic acid] | 0.1 to 1 µM | – | – |
